Data: patent US7563590B2, “Methods of quantifying methotrexate metabolites” (Cypress Bioscience Inc., priority 2002, dated 2009)

Legend:
[1] = Intracellular MTX and MTXPG levels in RBCs of polyarthritis patients receiving low-dose MTX; format: in vivo, human; details: one patient on 2.5 mg per week MTX, RBC
Protocol: Blood samples (5 ml) from polyarthritis patients receiving low-dose MTX were collected after written informed consent. The patients had received a median of 15 mg MTX (range 2.5 mg to 40 mg per week) for at least three months. Blood samples were centrifuged for 10 minutes to separate plasma and buffy coat from RBCs. After washing the RBC pellet with 2 volumes of saline, RBC count was determined with a Beckman Coulter Onyx Counter; RBCs were subsequently stored at −70° C. until analysis. Results were normalized to 10^9 red blood cells. Patient results were expressed as average ±SEM (range).
MTXPG concentrations were determined using the methods described in Example II except that RBC extracts were not spiked with MTXPG. MTXPG concentrations were calculated by subtracting […]. To quantify MTX concentrations without enzymatic treatment, a second 100 μl aliquot of patient RBC extract was obtained but not treated with plasma or buffer. Rather, 200 μl water was added to the RBC extract prior to immediate deproteinization with 30 μl 70% perchloric acid as described above.
An exemplary determination of MTXPG concentration in the red blood cells of a patient on 2.5 mg per week MTX therapy follows. […]

gamma glutamyl hydrolase = target: T1, gamma glutamyl hydrolase (Homo sapiens, UniProt Q92820); test: Enzymatic conversion of MTXPGs to MTX in RBC extract using plasma as source of gamma glutamyl hydrolase; format: biochemical; details: for conversion to MTX: in the dark, 1000 nmol/L RBC
T1 construct: contacting the extract with plasma as a source of gamma glutamyl hydrolase; tissue Sigma P9523; host or cells: reconstituted lyophilized plasma (purchased), mixed with RBC hemolysate from healthy donors
T1 sequence (Q92820 25-318): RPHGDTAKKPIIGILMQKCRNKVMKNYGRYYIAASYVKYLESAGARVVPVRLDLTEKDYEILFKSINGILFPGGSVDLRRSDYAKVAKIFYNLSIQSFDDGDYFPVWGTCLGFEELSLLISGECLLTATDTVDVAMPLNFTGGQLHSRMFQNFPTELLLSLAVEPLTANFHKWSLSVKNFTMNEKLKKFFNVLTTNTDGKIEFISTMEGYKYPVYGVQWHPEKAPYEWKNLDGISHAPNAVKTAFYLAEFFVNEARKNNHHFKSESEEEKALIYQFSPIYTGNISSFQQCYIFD
Protocol: MTXPGs were enzymatically converted to MTX by incubation with RBC extract and plasma as follows. RBCs were isolated from healthy donors (Blood bank; San Diego, Calif.) Hemolysates were prepared having 0.88×10^9 RBC per 100 μl. For spiked samples, MTXPG (Schirks Laboratories; Jona, Switzerland) was added to RBC extracts at a final concentration of 1 μM (from stock solutions containing 100 μM MTXPG in 0.1 N potassium hydroxide). Reconstituted plasma was prepared from lyophilized plasma (Sigma, St. Louis, USA; Cat. No. P9523) and 100 μl was added to 50 μl of RBC extract, mixed for 30 seconds, and 100 μl of buffer containing 100 mM potassium phosphate pH 4.5 and 150 mM mercaptoethanol was added. […] Samples were incubated for 12-14 hours, unless otherwise indicated, in the dark at 37° C. After incubation 30 μl of 70% perchloric acid was added to the mixture, vortexed for 15 seconds and centrifuged for 10 minutes. A total volume of 80 μl was injected onto the HPLC system for analysis using the MTX detection system described in Example I.
The percent conversion of MTXPG to MTX was determined by comparing the peak area of MTX formed during the enzymatic conversion at different times with the peak area of MTX spiked in the red blood cells at the same concentration.

| MTX concentration prior to enzymatic conversion [1] [pmol MTXPG/10^9 cells] | slope of plot of observed MTX concentration versus spiked concentration (gamma glutamyl hydrolase; RBC sample spiked prior to deglutamation (FIG. 5)) | conversion to MTX (gamma glutamyl hydrolase; after 8 hour incubation at 37° C.) | conversion to MTX (gamma glutamyl hydrolase; by 4 hours, 37° C.) | SMILES |
| --- | --- | --- | --- | --- |
| 16.5 |  |  |  | CN(Cc1cnc2nc(N)nc(N)c2n1)c1ccc(C(=O)N[C@@H](CCC(=O)O)C(=O)O)cc1 [MTX, methotrexate] |
|  | 0.98 | completely converted | largely complete | CN(Cc1cnc2nc(N)nc(N)c2n1)c1ccc(C(=O)N[C@@H](CCC(=O)N[C@@H](CCC(=O)O)C(=O)O)C(=O)O)cc1 [MTXPG2] |
